Assay [1] concerns MKN-45 (human stomach cancer cells). Nature of the assay: Cell-growth inhibitory activity against MKN-45 (WST-8 method). It is filed as cell-based. Particulars: 72 h, MKN-45 cells, 3 days incubation, read-out: 50% tumor growth inhibiting activity (IC50). On the procedure: Method for Determining the Effects of the Agent on Cells
Fetal calf serum (FCS) was obtained from Molgate and the DMEM culture medium from Asahi Technoglass Inc.
Human gastric cancer cell MKN-45 was obtained from the IBL Co., Ltd.
The cells were suspended in 10% FCS-DMEM medium and the suspension was distributed in a 96-well plastic plate in the amount of 1000 cells/50 microliter/well. The plate was incubated at 37° C. in 5% CO2-95% air overnight. Each drug was dissolved in dimethylsulfoxide or a suitable solvent by serial dilution and distributed in the wells at 50 microliters per well in which the cells had been added. The plate was incubated at 37° C. in 5% CO2-95% air for 3 days. The growth of the cultured cells was measured by the WST-8 method (H. Tominaga et al., Anal. Commun., 36, 47-50 (1999)). In the WST-8 method, 10 microliter of WST-8 reagent solution was added, and then incubated at 37° C. for 1 to 6 hours. After stirring the plate, the resulting formazan was quantitatively analyzed by colorimetry to determine the inhibition rate of the drug. Thus, 50% inhibitory concentration (IC50) for the growth was determined for each compound.

Assay [2] has as its system Human lung cancer cells LX-1. Nature of the assay: Anti-tumor effect on LX-1 solid tumor transplanted subcutaneously in nude mice. Particulars: LX-1 in nude mice. It is filed as in vivo, nude mice (Balb/c-nu/nu). From the text:
Method for Determining the Effects of the Agent on Animals
Female nude mice of 5 weeks of age (Balb/c-nu/nu) were obtained from Clea Japan, Inc. Human lung cancer cells LX-1 were obtained from the Japanese Foundation for Cancer Research Institute.
The synthesis of the control compound is described in JP-A No. 10-245390, Example 14.
The cancer cells were transplanted subcutaneously to nude mice so that solid cancer can be maintained. The solid cancer was sliced into 3 mm cubic blocks in physiological saline under ice cooling. One of the blocks was transplanted subcutaneously to a nude mouse to be used in experiment (Day 1). The cancer cells were grown subcutaneously in the mouse to form a tumor mass. The size of the mass was measured with a lapse of time, and when the volume reached 0.2 cm^3 or more (approximation by volume=major axis×minor axis^2÷2), administration of the drug was started. The drug was dissolved in 5% glucose solution and administered intravenously at the tail successively twice a week for 2 weeks (total 4 times). Two weeks after the administration, the percentage (T/C%) of the tumor volume (T) was calculated from the tumor volume (C) in the control group and that (T) in the test group as a tumor volume ratio.

Each structure is given as a SMILES string.

These results are taken from US20080113927A1, “Indolopyrrolocarbazole derivatives and anti-tumor agent” (priority 2003, published 2008).

Turning to `O=C1c2c(c3c4ccc(O)cc4n(C4OC(CO)C(O)C(O)C4O)c3c3[nH]c4cc(O)ccc4c23)C(=O)N1NCCCc1cccnc1` (stereo not shown) [Example 4], the IC50 in assay [1] turned out to be 6.3 nM. Still for that read-out and setting: in the case of `O=C1c2c(c3c4ccc(O)cc4n(C4OC(CO)C(O)C(O)C4O)c3c3[nH]c4cc(O)ccc4c23)C(=O)N1NCc1ccsc1` (stereo not shown) [Example 7] it was 2.7 nM; in that of `O=C1c2c(c3c4ccc(O)cc4n(C4OC(CO)C(O)C(O)C4O)c3c3[nH]c4cc(O)ccc4c23)C(=O)N1NCc1cccs1` (stereo not shown) [Example 8], 4.1 nM; in that of `O=C1c2c(c3c4ccc(O)cc4n(C4OC(CO)C(O)C(O)C4O)c3c3[nH]c4cc(O)ccc4c23)C(=O)N1NCc1ccccn1` (stereo not shown) [Example 2], 1.4 nM.

Regarding `O=C1c2c(c3c4ccc(O)cc4n(C4OC(CO)C(O)C(O)C4O)c3c3[nH]c4cc(O)ccc4c23)C(=O)N1NCc1ccco1` (stereo not shown) [Example 6], the IC50 in assay [1] was 5 nM.

Regarding `O=C1c2c(c3c4ccc(O)cc4n(C4OC(CO)C(O)C(O)C4O)c3c3[nH]c4cc(O)ccc4c23)C(=O)N1NCc1ccncc1` (stereo not shown) [Example 1], in assay [1], the IC50 worked out at 0.71 nM. Also, in assay [2] (comparison from Table 2), the “Anti-tumor activity against human lung cancer cells compared with the control compound” value is “markedly a stronger anti-tumor activity”. Also, in assay [2] (i.v. twice a week for 2 weeks, total dose 1200 mg/m^2, two weeks after the administration), the “Ratio of tumor volume Treated/Control (%)” value is reported as 1% (1200 mg/m^2). For the molecule `O=C1c2c(c3c4ccc(O)cc4n(C4OC(CO)C(O)C(O)C4O)c3c3[nH]c4cc(O)ccc4c23)C(=O)N1NCc1cccnc1` (stereo not shown) [Example 3], the IC50 in assay [1] is 0.95 nM. Still for that read-out and setting: in the case of `O=C1c2c(c3c4ccc(O)cc4n(C4OC(CO)C(O)C(O)C4O)c3c3[nH]c4cc(O)ccc4c23)C(=O)N1NCc1ccoc1` (stereo not shown) [Example 5] it was 2.8 nM.
